Assay in all cases: NCI anticancer screen, dose series, 48 h
The test system of test [1] is NCI-H460 lung.
Test [2] relates to LOX IMVI melanoma.
Test [3] deals with SNB-19 CNS.
The subject of test [4] is DU-145 prostate.
Test [5] relates to NCI/ADR-RES ovarian.
Test [6] deals with UACC-257 melanoma.
In test [7] the test system is MALME-3M melanoma.
For test [8], the system named is SK-MEL-2 melanoma.
The subject of test [9] is HOP-62 NSCLC.
Test [10] relates to HCT-116 colon.
Test [11] relates to HS 578T breast.

Structures are written as SMILES.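 Step 1: Grow cells in 96-well plates. Step 2: Expose to compound for 48 hours at 5 concentrations. Step 3: Interpolate endpoints linearly; if unreached, use highest concentration. Here, GI50 denotes the concentration required for 50% inhibition of growth. TGI: concentration producing complete growth inhibition.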

Take `CC(=O)c1cc2c(s1)C(=O)c1scc(C(C)=O)c1C2=O`: the TGI in test [1] turned out to be 1.27 µM; in test [2], 0.224 µM; in [3] it was 2.42 µM; in test [4], 2.86 µM; in test [5], 0.737 µM; in test [6] it was 0.544 µM. The TGI is 1.9 µM in test [7], 1.3 µM in test [8], 1.97 µM in test [9] and 1.12 µM in test [10].

`O=C(Nc1ccccc1)c1cc(S(=O)(=O)Nc2n[nH]c(=O)[nH]2)c(SSc2cc(Cl)c(C(=O)Nc3ccccc3)cc2S(=O)(=O)Nc2n[nH]c(=O)[nH]2)cc1Cl`: the TGI in test [1], in test [2], in test [11], in test [3], in [5] and in test [6] was above 100 µM each time. Further, the TGI in test [7], in test [8], in [9] and in [10] was above 100 µM in each case.

Take `C/C=C1\CN2CCC34c5ccccc5N(C)C35OCC4(C(=O)OC)C1CC25` (stereo not given): the TGI in test [1] was 64.8 µM; in test [2], 58.3 µM; in test [11], above 100 µM; in [3], above 100 µM; in [4] it was above 100 µM; in [6] it was above 100 µM. The TGI in test [8], in [9] and in test [10] was above 100 µM throughout.

On to `CCn1nc(-c2ccccc2)c2c1N(C)c1ccccc1-n1c(-c3ccccc3)nnc1-2`, for which the TGI was 29.2 µM in test [1]; 33 µM in test [2]; 52.4 µM in test [11]; 32.4 µM in [3]; 29.7 µM in [4]; 40.3 µM in test [5]. Further, the TGI in test [8] stood at 32.8 µM; in test [9], 32.2 µM; in test [10] it was 26.3 µM.

Regarding `OC12C3C4CC5C(C4[C@@H]1Br)C2[C@@](O)(c1c(F)c(F)c(F)c(F)c1F)C53` (stereo not given in full), the TGI was above 100 µM in test [1]; above 100 µM in [2]; 97.5 µM in test [11]; above 100 µM in [3]; above 100 µM in test [4]; 85.9 µM in test [5]. For the same compound, the TGI was above 100 µM in [6], 69.2 µM in test [8], above 100 µM in [9] and above 100 µM in [10].

Consider `CC(C)(C)OC(=O)NC1CCCC1C(O)(C1=CCCC1)C1=CCCC1` (stereo not given), for which the TGI in [1], in test [2], in [11], in test [3], in test [4] and in [5] was above 100 µM in each case. The TGI in test [6], in test [8], in test [9] and in test [10] was above 100 µM in each case.

Consider `c1ccc2c(c1)nc1n2CCNC1`, for which the TGI in test [1], in test [2], in test [11], in test [3], in test [4] and in [5] was above 100 µM throughout. For the same compound, the TGI in test [6], in [8], in [9] and in [10] was above 100 µM in each case.

On to `COC(=O)C1=C(O)C(C(=O)OC)[C@]2(O)[C@H](C(=O)OC)[C@H]1C[C@@H](c1cccc(OC)c1)[C@H]2C(=O)OC` (stereo not given in full), for which the TGI in test [1] is 65.7 µM; in test [2], above 100 µM; in test [11], 55 µM; in test [3] it was 81.7 µM; in test [5], above 100 µM; in test [6], above 100 µM. Further, the TGI in [7] is above 100 µM; in [8], 44.5 µM; in test [9], 89.5 µM; in [10], 65.6 µM.

As to `CC1(C)C2CCC1(C)C(N/C(=C(/C(Cl)=C(Cl)Cl)[N+](=O)[O-])n1nnc3ccccc31)C2` (stereo not given), the TGI in test [1] was above 100 µM; in [2], above 100 µM; in test [11] it was 43.6 µM; in [3], 55.7 µM; in test [5] it was 97.6 µM; in test [6] it was above 100 µM. In addition, the TGI in test [7] was 39.4 µM; in test [8] it was 61 µM; in test [9], 67 µM; in test [10] it was above 100 µM.

With `CSc1nc2c(c(=O)n1C)N=C(c1ccc(Cl)cc1)CC(c1ccccc1)N2` (stereo not given), the TGI in [2] was 54.3 µM; in test [3], above 100 µM; in [4] it was 73 µM; in test [5], 74.1 µM; in [6], 54.8 µM; in test [7], 36.4 µM. Further, the TGI in test [8] was 29.5 µM; in test [9], 71.4 µM; in [10], above 100 µM.

Regarding `COc1ccc(-c2cc(C3CC3)nc(SCC(=O)O)c2C#N)cc1`, the TGI in test [1], in [2], in test [11], in test [3], in test [4] and in test [5] was above 100 µM each time. For the same compound, the TGI in test [6], in [8], in test [9] and in test [10] was above 100 µM in each case.

Regarding `COc1cc(C(=O)O[C@H](C(=O)NCCNC(=O)[C@@H](OC(=O)c2cc(OC)cc3c(C)cccc23)[C@]2(C)CO2)[C@]2(C)CO2)c2cccc(C)c2c1`, the GI50 in [1] was below 0.0214 µM; in test [2], below 0.01 µM; in [11], 0.319 µM; in test [3], 0.22 µM; in [4], 0.257 µM; in test [5], 0.25 µM. Also, the GI50 in test [8] was below 0.0461 µM; in [9], 0.16 µM; in [10] it was below 0.0285 µM. Moreover, the TGI was 0.359 µM in test [1]; above 100 µM in test [11]; 1.46 µM in test [4]; 1.52 µM in [5]; 0.343 µM in test [6]; 0.919 µM in test [9]. The same compound returned a TGI in test [10] of 0.298 µM.

Consider `O=C1c2n[nH]nc2C(=O)c2n[nH]nc21`, for which the TGI in test [1], in test [2], in test [11], in [3], in test [4] and in [5] was above 100 µM throughout. The TGI in test [6], in test [8], in test [9] and in [10] was above 100 µM each time.

With `O=c1[nH]c(=S)c2cc3c(=S)[nH]c(=O)n(CCC(c4ccccc4)(c4ccccc4)c4ccccc4)c3nc2n1CCC(c1ccccc1)(c1ccccc1)c1ccccc1`, the TGI in [1], in [3], in [4], in test [5], in test [6] and in [7] was above 100 µM in each case. In addition, the TGI in [8], in [9] and in [10] was above 100 µM each time.

As to `CC1(C)CC(=O)C2=C(C1)NC(SCC(=O)O)=C(C#N)C2c1ccc(Br)cc1` (stereo not given), the TGI in test [1], in test [2], in test [11], in [3], in test [4] and in [5] was above 100 µM throughout. For the same compound, the TGI in test [6], in test [8], in test [9] and in [10] was above 100 µM throughout.

With `CC(=O)N1CC(C)(C)c2c1cc(C)c(O)c2C`, the TGI in test [1], in test [2], in [11], in [3], in test [4] and in test [5] was above 100 µM in each case. Besides, the TGI in test [6], in test [8], in test [9] and in [10] was above 100 µM in each case.

As to `COC(=O)C1=COC(C)C2C[n+]3ccc4c([nH]c5ccccc54)c3CC12` (stereo not given), the TGI in [1], in test [2], in [11], in test [3], in [4] and in test [5] was above 100 µM each time. Further, the TGI in test [6], in test [8], in test [9] and in test [10] was above 100 µM throughout.

For the compound `C\C=C/C=C/C=C/C(=O)O`, the TGI in test [1], in [2], in test [3], in test [6], in test [7] and in test [8] was above 100 µM each time. Besides, the TGI in test [9] and in test [10] was above 100 µM throughout.

For `CCOC(O)C(F)(F)F` (stereo not given), the TGI in test [1], in test [2], in test [11], in test [3], in test [4] and in [5] was above 100 µM each time. The TGI in test [6] and in [10] was above 100 µM throughout.

Turning to `N#CN=C1c2ccccc2C(=NC#N)c2cc(CO)ccc21`, the TGI in [1] is above 100 µM; in test [2], above 100 µM; in test [11] it was above 100 µM; in test [3], above 100 µM; in [4], 69 µM; in test [5], 83.6 µM. The TGI in [6], in [8], in test [9] and in test [10] was above 100 µM each time.

`COc1ccc2c(c1)C1Oc3ccccc3CC1(O)CO2` (stereo not given): the TGI in test [2], in test [4], in test [5], in test [6], in [7] and in [8] was above 100 µM throughout. Further, the TGI in test [9] and in [10] was above 100 µM in each case.

As for `OCc1c2c(cc3c1CC1(C3)Cc3cc4c(c(CO)c3C1)CCC4)CCC2`, the TGI in [2] came to 28.7 µM; in test [11] it was 36.9 µM; in test [5] it was 37.8 µM; in [6], 23.8 µM; in [7], 30 µM; in test [8], 36.7 µM. Moreover, the figures for the TGI in [9] and in [10] were 29.6 µM and 26.4 µM, respectively.

For the compound `Cc1ccc(S(=O)(=O)Nc2nc3ccccc3c(=O)n2C2CCCCC2)cc1`, the TGI in test [1], in test [2], in [11], in test [3], in [4] and in test [5] was above 100 µM each time. The TGI in test [6], in test [8], in [9] and in test [10] was above 100 µM each time.

`N#CC(c1nc2ccccc2s1)c1nc(Cl)ncc1Br` (stereo not given): the TGI in test [1], in [2], in [3], in [4], in test [5] and in [6] was above 100 µM throughout. Moreover, the TGI is above 100 µM in test [7], above 100 µM in test [9] and 69.8 µM in test [10].

For `CC(C)=CC(C)C(C(O)CCC1(c2ccoc2)OCCO1)S(=O)(=O)c1ccccc1` (stereo not given), the TGI in test [1], in test [2], in test [3], in test [5], in [6] and in [7] was above 100 µM in each case. In addition, the TGI in test [8], in test [9] and in [10] was above 100 µM in each case.

Turning to `COC(=O)c1c(C)ccc2c(O)c3c(cc12)C(=O)c1c2c(cc(O)c1C3=O)C1(C)OC(C)(O2)C(O)C(N(C)C)C1O` (stereo not given), the TGI in test [3] was 7.22 µM; in test [4], 2.46 µM; in test [5], above 100 µM; in test [6], 3.09 µM; in test [7], 6.42 µM; in [8], 5.65 µM. For the same compound, the TGI was determined as 13.4 µM in test [9] and 1.84 µM in [10].

As to `NNC(=Nc1ccccc1)SCc1ccccc1`, the TGI in test [1], in test [2], in [3], in test [4], in [5] and in test [6] was above 100 µM in each case. In addition, the TGI in [7], in test [8], in test [9] and in [10] was above 100 µM throughout.

For the origin of these results see PubChem BioAssay (NCI).
